The text below walks through data of patent US5223504A, “Xanthine compounds and compositions, and methods of using them” (Laboratorios Almirall SA, priority 1989, dated 1993).

The subject of assay [1] is PDE IV. The experiment in a line: Guinea-pig right ventricle strips sensitized with a PDE III inhibitor (e.g. amrinone): increase in developed tension (PDE IV inhibitory activity). In kind it is cell-based. Particulars: concentration causing 50% increase in developed tension; strips pre-treated with selective PDE III inhibitor (e.g. amrinone) 10 minutes before; 37° C., 1 Hz; read-out: Guinea-Pig Sensitized right ventricle strips (EC50μ M). As for the experimental part:
(§1) There is, however, a synergistic interaction between selective PDE III and PDE IV inhibitors in guinea-pig ventricle. […] There were then mounted in organ baths containing modified Krebs-Henseleit solution of the following composition (mM): NaCl 118; NaHCO3 25; Glucose 11; KCl 5.4; CaCl2 2.5; NaH2PO4 1.2 and MgCl2 0.8. The physiological buffer was maintained at 37° C. and continually aerated with 95% O2 / 5% CO2 v/v. The preparations were placed under 1 g resting tension and electrically stimulated to contract at 1 Hz whilst force of contraction was measured using an isometric force transducer. Preparations were equilibrated for 60 minutes during which they were washed every 15 minutes with fresh buffer. […] Concentrations causing a 50% increase (EC50) were calculated.

The target of assay [2] is T1, PDE III (Cavia porcellus, UniProt H0VIU9).
T1 construct: their hearts were removed and 2 ventricular preparations; from tissue; host or cells: guinea-pig right ventricle strips
T1 sequence (H0VIU9 1-1132): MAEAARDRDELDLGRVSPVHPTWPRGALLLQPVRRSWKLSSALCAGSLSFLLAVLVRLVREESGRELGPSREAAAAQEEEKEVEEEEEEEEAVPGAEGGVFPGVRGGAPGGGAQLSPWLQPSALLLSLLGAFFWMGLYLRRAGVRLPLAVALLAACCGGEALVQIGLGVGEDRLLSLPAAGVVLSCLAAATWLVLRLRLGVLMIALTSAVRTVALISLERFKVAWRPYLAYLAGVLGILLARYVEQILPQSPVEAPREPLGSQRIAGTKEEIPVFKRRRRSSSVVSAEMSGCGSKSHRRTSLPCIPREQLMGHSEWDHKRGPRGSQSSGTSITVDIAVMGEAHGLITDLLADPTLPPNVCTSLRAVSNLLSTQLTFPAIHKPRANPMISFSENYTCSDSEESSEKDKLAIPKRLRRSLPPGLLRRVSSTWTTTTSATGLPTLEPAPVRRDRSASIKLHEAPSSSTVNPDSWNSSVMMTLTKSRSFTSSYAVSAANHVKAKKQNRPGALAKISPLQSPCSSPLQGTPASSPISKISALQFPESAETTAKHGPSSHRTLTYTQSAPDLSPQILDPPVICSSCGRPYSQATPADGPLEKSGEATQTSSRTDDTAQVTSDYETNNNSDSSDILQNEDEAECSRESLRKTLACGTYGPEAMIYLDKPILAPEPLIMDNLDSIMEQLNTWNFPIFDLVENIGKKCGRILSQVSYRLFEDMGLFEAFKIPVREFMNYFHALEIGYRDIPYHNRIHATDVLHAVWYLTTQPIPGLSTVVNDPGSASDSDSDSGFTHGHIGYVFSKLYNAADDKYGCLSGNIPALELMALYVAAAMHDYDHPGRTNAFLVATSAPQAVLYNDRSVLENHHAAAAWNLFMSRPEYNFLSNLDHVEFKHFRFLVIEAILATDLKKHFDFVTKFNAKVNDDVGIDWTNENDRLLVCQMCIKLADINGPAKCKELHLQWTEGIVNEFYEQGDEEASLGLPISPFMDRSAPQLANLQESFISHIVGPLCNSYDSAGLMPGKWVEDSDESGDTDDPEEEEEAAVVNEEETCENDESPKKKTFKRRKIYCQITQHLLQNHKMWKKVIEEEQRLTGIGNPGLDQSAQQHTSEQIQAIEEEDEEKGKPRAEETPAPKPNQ
The experiment in a line: Non-sensitized guinea-pig right ventricle strips: increase in developed tension (PDE III inhibitory activity). In kind it is cell-based. Particulars: concentration causing 50% increase in developed tension; untreated (non-sensitized) strips; 37° C., 1 Hz; read-out: Guinea-Pig Non-Sensitized right ventricle strips (EC50μ M). As for the experimental part:
as §1

In assay [3] the test system is isolated guinea-pig ventricles. Particulars: literature (Gristwood and Owen, Br. J. Pharmacol., 87, 91P., 1985); cited from earlier work.

`CCCn1c(=O)c2[nH]cnc2n(-c2cccc(Cl)c2)c1=O` [Compound 2]: the values for the EC50 in assay [1] and in assay [2] were 0.1 µM and greater than 100 µM, respectively. For `CCCCn1c(=O)c2[nH]cnc2n(-c2ccc(F)cc2)c1=O` [Compound 18], in that order: 0.2 µM and greater than 100 µM. Take `Cn1c(=O)c2[nH]cnc2n(C)c1=O` [THEOPHYLLINE, reference compound]: the EC50 turned out to be 1520 µM in assay [1] and 1000 µM in assay [2].

With `CCCn1c(=O)c2[nH]cnc2n(-c2ccc(Br)cc2)c1=O` [Compound 5], the EC50 is 0.9 µM in assay [1] and greater than 100 µM in assay [2]. On the same counts, the results for `CCCCn1c(=O)c2[nH]cnc2n(-c2ccc(OC)cc2)c1=O` [Compound 20] are 0.3 µM and greater than 100 µM.

Turning to `CCCn1c(=O)c2[nH]cnc2n(-c2cccc([N+](=O)[O-])c2)c1=O` [Compound 10], the figures for the EC50 in assay [1] and in assay [2] were 0.4 µM and greater than 100 µM, respectively. On the same counts, the results for `CCCn1c(=O)c2[nH]c(C)nc2n(-c2ccccc2)c1=O` [Compound B, 1propyl-3-phenyl-8-methylxanthine, reference compound] are 7 µM and greater than 100 µM. For `CCCCCCn1c(=O)c2[nH]cnc2n(-c2ccc3c(c2)OCO3)c1=O` [Compound 36, 1-n-hexyl-3-(3,4-methylenedioxyphenyl)-xanthine], in that order: 1 µM and greater than 100 µM. `CCCn1c(=O)c2[nH]cnc2n(-c2cccc(OC)c2)c1=O` [Compound 9]: the values for the EC50 in assay [1] and in assay [2] were 0.2 µM and greater than 100 µM, respectively. On the same counts, the results for `CCCn1c(=O)c2[nH]cnc2n(-c2ccc(Cl)c(Cl)c2)c1=O` [Compound 12, 1-n-propyl-3-(3,4-dicholorophenyl)-xanthine] are 1.3 µM and greater than 100 µM.

Regarding `Cn1c(=O)c2[nH]cnc2n(-c2ccccc2)c1=O` [Compound A, 1methyl-3-phenylxanthine, reference compound], the EC50 was 8.9 µM in assay [1] and greater than 100 µM in assay [2].

In the case of `CCCn1c(=O)c2[nH]cnc2n(-c2ccc(Cl)cc2)c1=O` [Compound 1, 1-n-propyl-3-(4-chlorophenyl)-xanthine], the EC50 in assay [1] was 1.6 µM; in assay [2] it was greater than 100 µM. `COc1ccc(C2CNC(=O)C2)cc1OC1CCCC1` (stereo not shown) [rolipram]: in assay [3], the “inotropic response in isolated guinea-pig ventricles” value is “have no effect”. Regarding `CCCCn1c(=O)c2[nH]cnc2n(-c2cccc(OC)c2)c1=O` [Compound 21, 1-n-butyl-3-(3-methoxyphenyl)-xanthine], the EC50 in assay [1] is 1.2 µM; in assay [2] it was greater than 100 µM. `CC(=O)Nc1ccc(-c2c[nH]c(=O)cn2)cc1` [SK&F 94120]: the “inotropic response in isolated guinea-pig ventricles” value in assay [3] is “produce a positive inotropic response”.
